We go through four compounds from patent US20180008620A1, “METHODS OF TREATING NEUROLOGICAL INFLAMMATORY DISORDERS” (Mayo Foundation for Medical Education and Research, priority 2015, published 2018).

In experiment [1] the test system is Neurons cultured from neonatal mice. Kind of experiment: Calcium imaging of spontaneous network activity (GCaMP reporter). The format is cell-based, mouse. To be noted: for correlation of spontaneous activity (Pearson correlation matrix): cytokine-stimulated cultures vs vehicle control (overall uncorrelated); for correlation of spontaneous activity (Pearson correlation matrix) / absolute number of spontaneously active cells: FIG. 7; for absolute number of spontaneously active cells: cytokine-stimulated networks, vehicle control 42 neurons. How it is done:
The PBS control cultures show low amplitude calcium transients that are non-synchronous. […] Calcium levels were monitored using a fluorescent reporter transduced into the neurons with […].
The Pearson correlation matrix was calculated for all of the neurons showing spontaneous activity in the culture and heat-mapped (red=highly correlated activity; blue=uncorrelated activity). In the vehicle control neurons, there is a small cluster of synchronous activity but the overall network is uncorrelated.
Neurons are cultured in glass imaging chambers under conditions that promote formation of mature synaptic networks. Cells are infected with an AAV1.Syn.GCaMP6f calcium reporter that provides fast optical tracking of intracellular calcium levels (Akerboom et al., 2012, J. Neurosci., 32:[…]; Chen et al., 2013, Nature, 499:295-300). Calcium levels are monitored in real-time using a Zeiss 5-Live confocal microscope equipped with environmental chamber. Following collection of baseline spontaneous activity levels at low magnification, inflammatory cytokine is added at the optimal cytokine concentration determined above, and cells are followed for up to 60 minutes. Images are post-processed in Image J to measure calcium transient amplitudes and frequencies within defined cells. In some experiments, an Olympus multi-photon microscope is used at high magnification to track activity in individual synapses. In addition to spontaneous activity, calcium flux elicited by addition of glutamate to cultures that have been pretreated with inflammatory cytokines for different times (0, 1, 3, 6, 12, 24, 48, 72, or 96 hr) prior to stimulation also is measured.
Neurons were cultured from neonatal mice and stimulated with TNF alpha (100 ng/mL) or IFN gamma (500 U/mL) for 24 hr. Following transduction with an AAV-encoded GCaMPf reporter, fast calcium transients were imaged in the cells. Regions of interest outlining individual neurons were defined in each frame of movies collected over several minutes, and the fluorescence intensity of each cell was graphed through time to reveal patterns in the population response.

The subject of experiment [2] is Mouse cortical neurons. As to the kind of experiment: IFN gamma stimulation of distal axons in two-chamber device, microarray of cell body RNA. To be noted: IFN gamma added to axon chamber, RNA from cell body chamber 72 hours later. The format is cell-based. Here is the method: Mouse cortical neurons were cultured in a two-chamber device that separates cell bodies from axons. Panel A is a schematic of the chambered device constructed in PDMS polymer. Panel B is a low-magnification image of the corresponding regions shown in Panel A stained with an antibody against neurofilament (an axon-specific protein). Higher magnification images are shown of the cell body chamber (Panel C), the axon grooves (Panel D), and the axon chamber (Panel E). DAPI staining indicates the complete absence of any cells in the axon chamber. Panel F is a schematic showing the experimental design: IFNgamma was added to the pure axons in the axon chamber; RNA was collected from the cell body chamber 72 hours later and analyzed by microarray to identify changes in gene expression.
Mouse cortical neurons were cultured in a two-chamber device that separates cell bodies from axons.
IFN gamma was added to the pure axons in the axon chamber, and RNA was collected from the cell body chamber 72 hours later. The RNA was analyzed by microarray to identify changes in gene expression.

In experiment [3] the test system is Mouse cortical neurons. As to the kind of experiment: IFN gamma-induced transcriptional changes, Illumina BeadArray. The format is cell-based. To be noted: IFN gamma 500 U/mL, 24 hr, vs untreated controls; mean±95% confidence intervals. Here is the method: Cortical neurons were prepared from embryonic day 15 C57BL/6 mouse fetuses, following published protocols (Sauer et al., 2013, Neurobiol. Dis., 59:194-205). In preliminary experiments, after one week in vitro, the neurons were stimulated for 24 hr with IFN gamma (500 U/mL). Quadruplicate RNA samples were collected under treated and untreated conditions, and changes in gene expression were assessed using the Illumina BeadArray system. Only genes that were detected at P<0.05 on the array were considered for further analysis. Expression levels were […] and the relative level of expression following IFN gamma stimulation was compared to untreated controls. Table 1 provides mean±95% confidence intervals; the appropriate statistical test was chosen based on normality and equal variance tests.

Where [4] appears, read: TNF alpha 100 ng/mL or IFN gamma 500 U/mL for 24 hr, FIGS. 8B and 8C.

Take `NCCCC(=O)O` [GABA, reference compound]: the “averaged calcium responses / synaptic activity” value in experiment [1] (27 μM GABA added to control cultures, FIG. 8E) is on record as “completely suppresses synaptic activity”.
For the compound “IFN gamma: inflammatory cytokine interferon gamma used to stimulate neurons”, in the experiment on Mouse cortical neurons [2], the “GTP cyclohydrolase I expression in neuron cell bodies” value is on record as “significantly up-regulated”, the “MOCOS expression in neuron cell bodies” value is “robust up-regulation”, the “aldehyde dehydrogenase expression in neuron cell bodies” value is “significantly up-regulated” and the “gephyrin expression in neuron cell bodies” value is on record as “down-regulation”. For the same compound, in the experiment on Mouse cortical neurons [2], the “glycine receptor beta subunit expression in neuron cell bodies” value is listed as “down-regulation” and the “xanthine dehydrogenase expression in neuron cell bodies” value was “significantly up-regulated”. In the experiment on Mouse cortical neurons [2] (not shown), the “GABA receptor elements expression in neuron cell bodies” value was “down-regulation” and the “gephyrin-binding scaffolds expression in neuron cell bodies” value was “down-regulation”. Also, in the experiment on Mouse cortical neurons [3], the “Fold Change, gene Actb (housekeeping)” value is 1.04 ± 0.06 fold; the “Fold Change, gene Aldh1a1” value stood at 2.46 ± 0.08 fold; the “Fold Change, gene Collybistin” value was found to be 0.71 ± 0.06 fold; the “Fold Change, gene GABA A R α3” value was determined as 0.66 ± 0.10 fold. In the experiment with Mouse cortical neurons [3], the “Fold Change, gene GABA A R β1” value is recorded as 0.56 ± 0.09 fold; the “Fold Change, gene GABA A R β2” value came to 0.80 ± 0.09 fold; the “Fold Change, gene GABA A R β3” value came out at 0.75 ± 0.07 fold; the “Fold Change, gene GABA A R γ2” value was 0.64 ± 0.05 fold. In the experiment with Mouse cortical neurons [3], the “Fold Change, gene GABA B R2” value was 0.71 ± 0.10 fold; the “Fold Change, gene Gapdh” value is 1.03 ± 0.06 fold; the “Fold Change, gene Gch1” value was determined as 1.59 ± 0.04 fold; the “Fold Change, gene Gephyrin” value was 0.75 ± 0.05 fold. For the same compound, in the experiment on Mouse cortical neurons [3], the “Fold Change, gene Glycine R β1” value came to 0.59 ± 0.07 fold; the “Fold Change, gene MOCOS” value is on record as 2.97 ± 0.21 fold; the “Fold Change, gene Xdh” value is reported as 1.47 ± 0.14 fold. Besides, the “averaged calcium responses / network activity” value in experiment [1] (setting [4]) was “network bursting and highly synchronized synaptic activity”. Further, in experiment [1], the “correlation of spontaneous activity (Pearson correlation matrix)” value is recorded as “nearly complete correlation across the entire network” and the “absolute number of spontaneously active cells” value turned out to be 137 neurons.
TNF alpha: in experiment [1] (setting [4]), the “averaged calcium responses / network activity” value was “network bursting and highly synchronized synaptic activity”. In addition, in experiment [1], the “correlation of spontaneous activity (Pearson correlation matrix)” value is “nearly complete correlation across the entire network” and the “absolute number of spontaneously active cells” value was 151 neurons. Besides, in experiment [1] (stimulated for 24 hr, vs PBS control with low amplitude non-synchronous transients, FIG. 6), the “spontaneous calcium levels in neurons” value was “large amplitude calcium signals that were highly synchronized”.
For the compound picrotoxin [reference compound], the “averaged calcium responses / network activity” value in experiment [1] (control cultures treated with 2.4 μM picrotoxin, FIG. 8D) is “induces network synchrony and bursting”.
